Earlier results on 1 compound are cited in patent US20110008801A1, “METHODS FOR MEASURING CELL-CELL OR CELL-MATRIX ADHESIVE FORCES AND COMPOUNDS FOR DISRUPTING ADHESIVE FORCES IN BIOLOGICAL SYSTEMS” (Worcester Polytechnic Institute, priority 2006, published 2011).

The test system of the series is UPEC, type 1 and P fimbriated E. coli.

For `O=C(CO)[C@@H](O)[C@H](O)[C@H](O)CO` [fructose], the “adhesion of fimbriated E. coli” value is “inhibited the adhesion of bacteria with type 1 fimbriae only”.
